Data: the Kinase Knowledgebase extract (Sharma et al. 2016)
pIC50: −log10 of the molar value.

What was measured:
MAPK14 = MAPK14 (UniProt Q16539); experiment: Inhibition of MAPK14 Kinase Activity
MAPK14 (human) = MAPK14 (human) (UniProt Q16539); experiment: Inhibition of LPS Induced TNF-alpha Release in Human PBMC
MAPK14 (Balb/c mice) = experiment: Animal Model; conditions: dose or concentration not given here

Sequence of MAPK14 (human) (Q16539 whole entry, looked up): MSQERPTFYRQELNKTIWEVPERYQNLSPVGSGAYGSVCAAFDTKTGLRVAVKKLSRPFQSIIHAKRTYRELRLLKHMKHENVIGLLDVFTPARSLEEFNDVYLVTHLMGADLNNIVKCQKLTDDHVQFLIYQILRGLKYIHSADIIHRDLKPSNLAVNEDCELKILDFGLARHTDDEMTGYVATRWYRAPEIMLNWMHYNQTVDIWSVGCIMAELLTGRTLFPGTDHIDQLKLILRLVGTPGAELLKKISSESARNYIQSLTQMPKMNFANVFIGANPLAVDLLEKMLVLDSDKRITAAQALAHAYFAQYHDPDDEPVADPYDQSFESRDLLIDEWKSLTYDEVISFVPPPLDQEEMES
Sequence of MAPK14 (Q16539 whole entry, looked up): as above

Row | Structure (SMILES) | pIC50 (MAPK14) | pIC50 (MAPK14 (human)) | inhibition (MAPK14 (Balb/c mice)) [%]
1 | Cc1ccc(NC(=O)c2cccc(N3CCOCC3)c2)cc1NC(=O)c1ccc(OCc2cccnc2)cc1 | 7.02 |  | 
2 | COc1ccc(C(=O)Nc2cc(NC(=O)c3cccc(N(C)C)c3)ccc2C)c(OC)c1 |  | < 4.30 | 
3 | Cc1nc(COc2ccc(C(=O)Nc3cc(NC(=O)c4cccc(N5CCOCC5)c4)ccc3C)cc2)cs1 | 7.55 |  | 
4 | Cc1ccc(NC(=O)c2cccc(N(C)C)c2)cc1NC(=O)c1ccc(O)cc1 |  | < 4.30 | 
5 | Cc1ccc(NC(=O)c2cccc(N3CCOCC3)c2)cc1NC(=O)c1ccc(OCc2ccccc2)cc1 | 7.43 |  | 
6 | Cc1ccc(NC(=O)c2cc(F)cc(N3CCOCC3)c2)cc1NC(=O)c1ccc(OCc2cscn2)cc1 | 7.80 |  | 
7 | Cc1ccc(NC(=O)c2cc(F)cc(N3CCOCC3)c2)cc1NC(=O)c1ccc(OCc2ccccn2)cc1 | 7.19 |  | 
8 | Cc1nc(COc2ccc(C(=O)Nc3cc(NC(=O)c4cc(F)cc(N5CCOCC5)c4)ccc3C)cc2)cs1 | 7.01 |  | 0
9 | Cc1ccc(NC(=O)c2cccc(N3CCOCC3)c2)cc1NC(=O)c1ccc(OCc2ccncc2)cc1 | 7.66 |  | 
10 | COc1ccc(C(=O)Nc2cc(NC(=O)c3cccc(N(C)C)c3)ccc2C)cc1 |  | < 4.30 | 
11 | Cc1ccc(NC(=O)c2cc(F)cc(N3CCOCC3)c2)cc1NC(=O)c1ccc(OCc2ccncc2)cc1 | 7.77 |  | 
